According to ChEMBL document CHEMBL1201862, “PubChem BioAssay data set” (2004):
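Five compound concentrations were applied to cells in 96-well plates for 48 hours; endpoints were derived by simple linear interpolation of the resulting dose-response curve. GI50: concentration for 50% inhibition of growth.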 Activity calls are given as the source filed them. Cut-off read from the data, not from the text of the source: active = GI50 up to about 1.1 µM and inactive = higher.

Tests used:
Experiment in all cases: growth of human tumour cells (NCI), 48 h
SK-MEL-28 = system: SK-MEL-28
MCF7 = system: MCF7
SR = system: SR
PC-3 = system: PC-3
SK-MEL-5 = system: SK-MEL-5
KM12 = system: KM12
IGROV-1 = system: IGROV-1
EKVX = system: EKVX
K562 = system: K562
M14 = system: M14
HL-60 = system: HL-60
NCI/ADR-RES = system: NCI/ADR-RES
SK-MEL-2 = system: SK-MEL-2
HOP-92 = system: HOP-92
RXF 393 = system: RXF 393
Malme-3M = system: Malme-3M
NCI-H226 = system: NCI-H226
HOP-62 = system: HOP-62
Hs-578T = system: Hs-578T
SF-268 = system: SF-268

Measured: GI50

CC1(C)OC(CCC#N)CN1C(=O)OCc1ccccc1 (stereo not given)
inactive: SK-MEL-28 > 100 µM | MCF7 > 100 µM | SR > 100 µM | PC-3 > 100 µM | SK-MEL-5 68.4 µM | KM12 28.9 µM | IGROV-1 > 100 µM | EKVX > 100 µM | K562 > 100 µM | M14 > 100 µM | HL-60 > 100 µM | NCI/ADR-RES > 100 µM | SK-MEL-2 > 100 µM | HOP-92 > 100 µM | RXF 393 > 100 µM | Malme-3M 49 µM | NCI-H226 23.6 µM

CC(=O)OCCOCn1c2c(c(=O)[nH]c1=O)CCC2
inactive: HOP-62 > 100 µM | SK-MEL-28 > 100 µM | MCF7 > 100 µM | SR > 100 µM | PC-3 > 100 µM | SK-MEL-5 > 100 µM | KM12 > 100 µM | IGROV-1 > 100 µM | EKVX > 100 µM | K562 > 100 µM | M14 > 100 µM | HL-60 > 100 µM | Hs-578T > 100 µM | SF-268 > 100 µM | SK-MEL-2 > 100 µM | HOP-92 > 100 µM | RXF 393 > 100 µM | Malme-3M > 100 µM | NCI-H226 > 100 µM

O=C(CN1CCCCC1)Nc1ccc2c(c1)C1Oc3ccccc3CC1CO2 (stereo not given)
inactive: HOP-62 16.9 µM | MCF7 21.8 µM | SR 23.2 µM | PC-3 17.7 µM | SK-MEL-5 13.8 µM | KM12 20.5 µM | IGROV-1 21.1 µM | EKVX 17.2 µM | K562 58.9 µM | M14 18.2 µM | HL-60 46.1 µM | NCI/ADR-RES 23.9 µM | SF-268 34.2 µM | SK-MEL-2 20.2 µM | HOP-92 18.3 µM | Malme-3M 16.7 µM | NCI-H226 21 µM

COc1ccc(-c2c(C#N)c(S)n(NS(=O)(=O)c3ccc(C)cc3)c(=O)c2C#N)cc1
inactive: HOP-62 29.6 µM | SK-MEL-28 24.2 µM | MCF7 29.4 µM | PC-3 18.2 µM | SK-MEL-5 13.8 µM | KM12 15.3 µM | IGROV-1 14.6 µM | EKVX 25.8 µM | K562 18.7 µM | M14 17.7 µM | HL-60 11.1 µM | NCI/ADR-RES 20.3 µM | SF-268 23.4 µM | SK-MEL-2 15.3 µM | HOP-92 33.1 µM | RXF 393 17.5 µM | Malme-3M 24.6 µM | NCI-H226 20 µM

COc1ccc(N2C(=O)C3c4[nH]c5ccccc5c4C4c5ccccc5CC4C3C2=O)cc1 (stereo not given)
inactive: HOP-62 > 100 µM | SK-MEL-28 > 100 µM | MCF7 > 100 µM | SR > 100 µM | PC-3 > 100 µM | KM12 > 100 µM | IGROV-1 > 100 µM | EKVX > 100 µM | K562 > 100 µM | M14 > 100 µM | HL-60 > 100 µM | NCI/ADR-RES > 100 µM | SF-268 > 100 µM | SK-MEL-2 > 100 µM | HOP-92 > 100 µM | RXF 393 > 100 µM | Malme-3M > 100 µM | NCI-H226 > 100 µM

COc1ccc(C(=O)c2[nH]c(Nc3cc(C)ccn3)c(C(=S)Nc3ccccc3)c2N)cc1
inactive: HOP-62 24.7 µM | SK-MEL-28 17 µM | MCF7 20.4 µM | SR 15.2 µM | PC-3 21.2 µM | KM12 13.3 µM | IGROV-1 12.2 µM | EKVX 22.3 µM | K562 25.1 µM | M14 20.5 µM | HL-60 24.3 µM | NCI/ADR-RES 3.49 µM | SF-268 21.9 µM | SK-MEL-2 10.1 µM | RXF 393 16.9 µM | Malme-3M 14.6 µM | NCI-H226 17.1 µM

O=C(CC(C(=O)c1ccsc1)c1ccc2c(c1)OCO2)c1ccccc1 (stereo not given)
inactive: HOP-62 > 100 µM | SK-MEL-28 > 100 µM | MCF7 88.3 µM | SR > 100 µM | SK-MEL-5 95.9 µM | KM12 > 100 µM | IGROV-1 > 100 µM | EKVX > 100 µM | K562 > 100 µM | M14 > 100 µM | HL-60 > 100 µM | NCI/ADR-RES > 100 µM | Hs-578T > 100 µM | SF-268 > 100 µM | HOP-92 > 100 µM | RXF 393 > 100 µM | NCI-H226 > 100 µM

CCOC(=O)c1c(-c2ccc(OC)cc2)c(C#N)c(=S)n(C2OC(CO)C(O)C(O)C2O)c1C (stereo not given)
inactive: HOP-62 > 100 µM | SK-MEL-28 > 100 µM | MCF7 > 100 µM | SR > 100 µM | PC-3 > 100 µM | SK-MEL-5 > 100 µM | KM12 > 100 µM | IGROV-1 > 100 µM | EKVX > 100 µM | K562 > 100 µM | M14 > 100 µM | HL-60 > 100 µM | NCI/ADR-RES > 100 µM | SF-268 > 100 µM | SK-MEL-2 > 100 µM | HOP-92 > 100 µM | RXF 393 > 100 µM | Malme-3M > 100 µM | NCI-H226 > 100 µM

O=CNNC(=O)Nc1ccc(Cl)cc1
inactive: HOP-62 > 100 µM | SK-MEL-28 > 100 µM | MCF7 > 100 µM | SR > 100 µM | SK-MEL-5 > 100 µM | KM12 > 100 µM | IGROV-1 > 100 µM | EKVX > 100 µM | K562 > 100 µM | M14 > 100 µM | HL-60 > 100 µM | NCI/ADR-RES > 100 µM | Hs-578T > 100 µM | SF-268 > 100 µM | HOP-92 26.9 µM | RXF 393 > 100 µM | Malme-3M > 100 µM | NCI-H226 31.1 µM

c1ccc(C2CC(N3CCOCC3)=Nc3ccccc3N2)cc1 (stereo not given)
inactive: HOP-62 > 100 µM | SK-MEL-28 > 100 µM | PC-3 > 100 µM | SK-MEL-5 > 100 µM | KM12 > 100 µM | IGROV-1 93.8 µM | EKVX > 100 µM | K562 58.2 µM | M14 > 100 µM | HL-60 > 100 µM | NCI/ADR-RES > 100 µM | Hs-578T > 100 µM | SF-268 > 100 µM | SK-MEL-2 > 100 µM | RXF 393 78.5 µM | Malme-3M 80.9 µM | NCI-H226 > 100 µM

CCCCc1ccc(Nc2nc(Cl)c3ncn(C4CC(Oc5ccc(C)cc5)C(COc5ccc(C)cc5)O4)c3n2)cc1 (stereo not given)
inactive: HOP-62 75.2 µM | MCF7 > 100 µM | SR > 100 µM | SK-MEL-5 > 100 µM | KM12 > 100 µM | IGROV-1 > 100 µM | EKVX > 100 µM | K562 > 100 µM | M14 > 100 µM | HL-60 89.9 µM | NCI/ADR-RES > 100 µM | Hs-578T > 100 µM | SF-268 > 100 µM | SK-MEL-2 > 100 µM | HOP-92 17.2 µM | RXF 393 > 100 µM | Malme-3M > 100 µM | NCI-H226 > 100 µM
